≈ marks a conversion by molar mass, not a printed value. Counter-ions that a name gives are not always drawn. Blank lines part the entries; values can stand above or below the molecule they belong to.
Key:
[1] = tested on: M. catarrhalis IPA151 sensitive; assay: MIC by dilutions in agar medium (NCCLS); type: cell-based; conditions: Moraxella catarrhalis, IPA151SENSITIVE; Gram-negative, at 48 hours, agar dilution
Description: (§1) a) Activity in vitro The method of dilutions in agar medium in agreement with the NCCLS recommendations is used for the determination of the minimum inhibitory concentrations (MIC) expressed in μg/ml.

[2] = tested on: S. pneumoniae 6254-01 MLSB resistant; assay: MIC by dilutions in agar medium (NCCLS); type: cell-based; conditions: Streptococcus pneumoniae; Gram-positive, at 24 hours, agar dilution
Description: as §1

[3] = tested on: S. aureus AS 5155 methicillin resistant; assay: MIC by dilutions in agar medium (NCCLS); type: cell-based; conditions: Staphylococcus aureus; Gram-positive, at 24 hours, agar dilution
Description: as §1

[4] = tested on: S. aureus IP8203 sensitive; assay: MIC by dilutions in agar medium (NCCLS); type: cell-based; conditions: Staphylococcus aureus; Gram-positive, at 24 hours, agar dilution
Description: as §1

E. faecalis ATCC29212 = assay: MIC by dilutions in agar medium (NCCLS); type: cell-based; conditions: Enterococcus faecalis, Gram-positive, at 24 hours, agar dilution
Description: as §1

melting point: 102 °C
SMILES: COc1ccc2ncc(F)c(CCCC3(C(=O)O)CCN(C/C=C/c4cc(Cl)ccc4Cl)C3)c2c1 (single isomer, unassigned) [Example 36, 1-[(2E)-3-(2,5-dichlorophenyl)-2-propenyl]-3-[3-(3-fluoro-6-methoxyquinolin-4-yl)propyl]-3-pyrrolidinecarboxylic acid]

MIC [1]: 0.12 to 2 µg/mL (≈ 0.241 to 4.01 µM)
MIC [2]: 0.015 to 4 µg/mL (≈ 0.0301 to 8.02 µM)
MIC [3]: 0.015 to 4 µg/mL (≈ 0.0301 to 8.02 µM)
MIC [4]: 0.015 to 4 µg/mL (≈ 0.0301 to 8.02 µM)
MIC (E. faecalis ATCC29212): 0.25 to 32 µg/mL (≈ 0.501 to 64.2 µM)
SMILES: COC(=O)C1(CCCc2c(F)cnc3ccc(OC)cc23)CCN(C/C=C/c2cc(F)ccc2F)C1 (racemic) [Example 2, Methyl (±)-1-[(2E)-3-(2,5-difluorophenyl)-2-propenyl]-3-[3-(3-fluoro-6-methoxyquinolin-4-yl)propyl]-3-pyrrolidinecarboxylate]

melting point: 80 to 84 °C
SMILES: COc1ccc2ncc(F)c(CCCC3(C(=O)O)CCN(C/C=C/c4cc(F)ccc4F)C3)c2c1 (single isomer, unassigned) [Example 4, 1-[(2E)-3-(2,5-difluorophenyl)-2-propenyl]-3-[3-(3-fluoro-6-methoxyquinolin-4-yl)propyl]-3-pyrrolidinecarboxylic acid]

melting point: 77 °C
SMILES: COc1ccc2ncc(Cl)c(CCCC3(C(=O)O)CCN(C/C=C/c4cc(F)ccc4F)C3)c2c1 (racemic) (as salt: sodium) [Example 15, (±)-3-[3-(3-chloro-6-methoxyquinolin-4-yl)propyl]-1-[(2E)-3-(2,5-difluorophenyl)-2-propenyl]-3-pyrrolidinecarboxylic acid]

melting point: 96 °C
SMILES: COc1ccc2ncc(F)c(CCCC3(C(=O)O)CCN(C/C=C/c4c(F)cccc4F)C3)c2c1 (single isomer, unassigned) (as salt: hydrochloride) [Example 41, 3-[3-(3-fluoro-6-methoxyquinolin-4-yl)propyl]-1-[(2E)-3-(2,6-difluorophenyl)-2-propenyl]-3-pyrrolidinecarboxylic acid]

melting point: 211 °C
SMILES: COc1ccc2ncc(F)c(CCCC3(C(=O)O)CN(C/C=C/c4cc(F)ccc4F)C3)c2c1 [Example 11, 1-[(2E)-3-(2,5-difluorophenyl)-2-propenyl]-3-[3-(3-fluoro-6-methoxyquinolin-4-yl)propyl]-3-azetidinecarboxylic acid]

melting point: 76 to 80 °C
MIC [1]: 0.12 to 2 µg/mL (≈ 0.248 to 4.13 µM)
MIC [2]: 0.015 to 4 µg/mL (≈ 0.031 to 8.26 µM)
MIC [3]: 0.015 to 4 µg/mL (≈ 0.031 to 8.26 µM)
MIC [4]: 0.015 to 4 µg/mL (≈ 0.031 to 8.26 µM)
MIC (E. faecalis ATCC29212): 0.25 to 32 µg/mL (≈ 0.516 to 66 µM)
SMILES: COc1ccc2ncc(F)c(CCCC3(C(=O)O)CCN(C/C=C/c4cc(F)ccc4F)C3)c2c1 (single isomer, unassigned) [Example 3, 1-[(2E)-3-(2,5-difluorophenyl)-2-propenyl]-3-[3-(3-fluoro-6-methoxyquinolin-4-yl)propyl]-3-pyrrolidinecarboxylic acid]

melting point: 77 °C
MIC [1]: 0.12 to 2 µg/mL (≈ 0.248 to 4.13 µM)
MIC [2]: 0.015 to 4 µg/mL (≈ 0.031 to 8.26 µM)
MIC [3]: 0.015 to 4 µg/mL (≈ 0.031 to 8.26 µM)
MIC [4]: 0.015 to 4 µg/mL (≈ 0.031 to 8.26 µM)
MIC (E. faecalis ATCC29212): 0.25 to 32 µg/mL (≈ 0.516 to 66 µM)
SMILES: COc1ccc2ncc(F)c(CCCC3(C(=O)O)CCN(C/C=C/c4cc(F)ccc4F)C3)c2c1 (racemic) [Example 1, (±)-1-[(2E)-3-(2,5-difluorophenyl)-2-propenyl]-3-[3-(3-fluoro-6-methoxyquinolin-4-yl)propyl]-3-pyrrolidinecarboxylic acid]

The remaining lines, values behind:

SMILES: COc1ccc2ncc(F)c(CCCC3(C(=O)O)CCN(C/C=C/c4cc(F)c(F)c(F)c4)C3)c2c1 (single isomer, unassigned) [Example 50, 3-[3-(3-fluoro-6-methoxyquinolin-4-yl)propyl]-1-[(2E)-3-(3,4,5-trifluorophenyl)-2-propenyl]-3-pyrrolidinecarboxylic acid]
melting point: 148 °C

SMILES: COc1ccc2ncc(F)c(CCCC3(C(=O)O)CCN(CCSc4cccs4)C3)c2c1 (single isomer, unassigned) [Example 17, 3-[3-(3-fluoro-6-methoxyquinolin-4-yl)propyl]-1-[2-(2-thienylthio)ethyl]-3-pyrrolidinecarboxylic acid]
melting point: 160 °C

SMILES: COc1ccc2ncc(F)c(CCCC3(C(=O)O)CCN(C/C=C/c4cc(F)c(F)c(F)c4)C3)c2c1 (single isomer, unassigned) [Example 49, 3-[3-(3-fluoro-6-methoxyquinolin-4-yl)propyl]-1-[(2E)-3-(3,4,5-trifluorophenyl)-2-propenyl]-3-pyrrolidinecarboxylic acid]
melting point: 110 °C

SMILES: COc1ccc2ncc(F)c(CCCC3(C(=O)O)CCN(CCSc4c(F)cccc4F)C3)c2c1 (single isomer, unassigned) [Example 57, 1-[2-[(2,6-difluorophenyl)thio]ethyl]-3-[3-(3-fluoro-6-methoxyquinolin-4-yl)propyl]-3-pyrrolidinecarboxylic acid]
melting point: 106 °C

SMILES: COc1ccc2ncc(F)c(CCCC3(C(=O)O)CCN(CCOc4cc(F)ccc4F)C3)c2c1 (single isomer, unassigned) [Example 30, 1-[2-(2,5-difluorophenoxy)ethyl]-3-[3-(3-fluoro-6-methoxyquinolin-4-yl)propyl]-3-pyrrolidinecarboxylic acid]
melting point: 157 °C

SMILES: COc1ccc2ncc(F)c(CCCC3(C(=O)O)CCN(CCSc4cccs4)C3)c2c1 (single isomer, unassigned) [Example 18, 3-[3-(3-fluoro-6-methoxyquinolin-4-yl)propyl]-1-[2-(2-thienylthio)ethyl]-3-pyrrolidinecarboxylic acid]
melting point: 172 °C
